Data from publication PMC6946680, “Modulation of brain cation-Cl^− cotransport via the SPAK kinase inhibitor ZT-1a” (Nature Communications, 2020).
Where “and” joins values, the source holds several entries; their conditions need not be identical. Identical values can stand only once. Like-named read-outs stand apart in the source and are kept apart here.

Key:
SPAK–WNK1 interaction = system: T1, SPAK–WNK1 interaction; assay: SPAK antibody pull-down / co-immunoprecipitation of WNK1 from HEK-293 cell lysates; format: binding, human; conditions: Fig S6
T1 construct: endogenous in cells; host or cells: HEK-293
Method: Supplemental Fig. 6 Evidence that SPAK associates with WNK1, and interaction is disrupted by ZT-1a and its analogs. Non-transfected HEK293 cell lysates were incubated with the RFQV peptide […]
ZT-1a for 30 min on ice and subjected to SPAK antibody immunoprecipitation. Immunoprecipitates were subjected to immunoblot probed with antibody to total WNK1 and antibody to total SPAK. Left panels: representative immunoblots. Right panels, summarized data quantitated by densitometry (n=3, means ± SEM; **,

KCC3 pThr991 = assay: Immunoblot of KCC site 1 phosphorylation (KCC3 Thr991) in HEK-293 cells transfected with FLAG-KCC3; format: cell-based, human; conditions: for IC50: read-out: KCC3 pThr991 (μM), 50% inhibition, HEK-293, n = 3
SPAK pSer373 [1] = assay: Immunoblot of SPAK/OSR1 p-Ser373/Ser325 in HEK-293 cells; format: cell-based, human; conditions: read-out: SPAK pSer373 (μM), 50% inhibition, HEK-293, n = 3
NKCC1 pThr203/207/212 [2] = assay: Immunoblot of NKCC1 p-Thr203/Thr207/Thr212 in HEK-293 cells; format: cell-based, human; conditions: read-out: NKCC1 pThr203 (μM), 50% inhibition, HEK-293, n = 3
KCC3 pThr1048 [3] = assay: Immunoblot of KCC site 2 phosphorylation (KCC3 Thr1048) in HEK-293 cells transfected with FLAG-KCC3; format: cell-based, human; conditions: read-out: KCC3 pThr1048 (μM), 50% inhibition, HEK-293, n = 3
[4] = system: mouse model of ischemic stroke (tMCAO); assay: Infarct volume and hemispheric swelling (TTC) 24 h after tMCAO; format: in vivo; conditions: Fig 7b, individual mice
SPAK pSer373 [5] = assay: Immunoblot of SPAK/OSR1 p-Ser373/Ser325 in HEK-293 cells; format: cell-based, human
Method: (§1) Band intensities were quantitated with ImageJ software. ***p < 0.001; **p < 0.01; *p < 0.05; ns, nonsignificant [by one-way ANOVA with post hoc testing (n = 6, error bars represent the mean ± SEM)].
(§2) Thirty-six hours post transfection, cells were stimulated with either control isotonic or hypotonic medium for a period of 30 min. […] Protein concentrations were determined using the Bradford method. Cells were treated with the indicated concentrations of the SPAK/OSR1 inhibitors.

NKCC1 pThr203/207/212 [6] = assay: Immunoblot of NKCC1 p-Thr203/Thr207/Thr212 in HEK-293 cells; format: cell-based, human
Method: as §1, §2

KCC3 pThr1048 [7] = assay: Immunoblot of KCC site 2 phosphorylation (KCC3 Thr1048) in HEK-293 cells transfected with FLAG-KCC3; format: cell-based, human
[8] = Hypotonic low Cl, compound concentration 1 (unit not given)
[9] = Hypotonic low Cl, compound concentration 3 (unit not given)
[10] = Hypotonic low Cl, compound concentration 10 (unit not given)
[11] = Isotonic control, compound concentration 1 (unit not given)
[12] = Isotonic control, compound concentration 10 (unit not given)
[13] = Isotonic control, compound concentration 3 (unit not given)

Cc1cc(C(C#N)c2ccc(Cl)cc2)c(Cl)cc1NC(=O)c1cc(I)cc(I)c1O (stereo not drawn) [Closanel] was tested, and the “WNK1 co-immunoprecipitated with SPAK (band quantification)” value (shortened to “WNK1 co-immunoprecipitated with SPAK”) (SPAK–WNK1 interaction; 10 uM) was 0.416 and 0.33 and 0.3682 and 0.389, the “WNK1 co-immunoprecipitated with SPAK” value (SPAK–WNK1 interaction; 30 uM) was 0.353 and 0.208 and 0.256 and 0.231 and the “WNK1 co-immunoprecipitated with SPAK” value (SPAK–WNK1 interaction; 100 uM) was 0.179 and 0.139 and 0.1611 and 0.153. For the same compound, the “WNK1 co-immunoprecipitated with SPAK” value (SPAK–WNK1 interaction; 1000 uM) was 0.036 and 0.031 and 0.0232 and 0.027.
With Cc1cc(C(C#N)c2ccc(Cl)cc2)c(Cl)cc1NC(=O)c1cccc(O)c1O (stereo not drawn) [Compound 1i] the IC50 (KCC3 pThr991; Iso (isotonic)) was over 10 µM, the IC50 (KCC3 pThr991; hypo (hypotonic)) was over 10 µM and the IC50 (SPAK pSer373 [1]; Iso (isotonic)) was over 10 µM. The IC50 (SPAK pSer373 [1]; hypo (hypotonic)) was over 10 µM, the IC50 (NKCC1 pThr203/207/212 [2]; Iso (isotonic)) was over 10 µM and the IC50 (NKCC1 pThr203/207/212 [2]; hypo (hypotonic)) was over 10 µM. It also gave an IC50 (KCC3 pThr1048 [3]; Iso (isotonic)) of over 10 µM and an IC50 (KCC3 pThr1048 [3]; hypo (hypotonic)) of over 10 µM.
Cc1cc(C(C#N)c2ccc(Cl)cc2)c(Cl)cc1NC(=O)c1cc(Cl)ccc1O (stereo not drawn) [ZT] was tested, and the “Hemisphere swelling (%)” value ([4]; group ZT 2.5) was 11.06% and 15.88% and 13.11% and 15.27% and 16.5% and 21.75%, the “Infarct volume (mm3)” value ([4]; group ZT 2.5) was 29.36 mm3 and 90.65 mm3 and 33.9 mm3 and 61.9 mm3 and 46.64 mm3 and 99.8 mm3 and the “Hemisphere swelling (%)” value ([4]; group ZT 5.0) was 16.2% and 16.76% and 19.99% and 9.25% and 8.47% and 7.57% and 9.24% and 4.63% and 10.39% and 8.48% and 13.8% and 7.91%. For the same compound, the “Infarct volume (mm3)” value ([4]; group ZT 5.0) was 48.74 mm3 and 86.87 mm3 and 49.93 mm3 and 31.43 mm3 and 42.1 mm3 and 27.75 mm3 and 25.29 mm3 and 24.11 mm3 and 27.25 mm3 and 37.2 mm3 and 90 mm3 and 33.39 mm3.
For Cc1cc(C(C#N)c2ccc(Cl)cc2)c(Cl)cc1NC(=O)c1cc(F)ccc1O (stereo not drawn) [ZT-1g], the “pSer373 / SPAK” value (SPAK pSer373 [5]; [8]) was 0.101 and 0.097 and 0.112 and 0.0903, the “pSer373 / SPAK” value (SPAK pSer373 [5]; [9]) was 0.058 and 0.071 and 0.066 and 0.078 and the “pSer373 / SPAK” value (SPAK pSer373 [5]; [10]) was 0.044 and 0.027 and 0.035 and 0.041. The “pSer373 / SPAK” value (SPAK pSer373 [5]; [11]) was 0.034 and 0.041 and 0.029 and 0.046, the “pSer373 / SPAK” value (SPAK pSer373 [5]; [12]) was 0.017 and 0.015 and 0.013 and 0.016 and the “pThrNKCC1 / NKCC1” value (NKCC1 pThr203/207/212 [6]; [8]) was 0.41 and 0.38 and 0.36 and 0.43. The “pThrNKCC1 / NKCC1” value (NKCC1 pThr203/207/212 [6]; [9]) was 0.21 and 0.19 and 0.176 and 0.196, the “pThrNKCC1 / NKCC1” value (NKCC1 pThr203/207/212 [6]; [10]) was 0.1 and 0.064 and 0.089 and 0.097 and the “pThrNKCC1 / NKCC1” value (NKCC1 pThr203/207/212 [6]; [11]) was 0.306 and 0.28 and 0.251 and 0.293. The “pThrNKCC1 / NKCC1” value (NKCC1 pThr203/207/212 [6]; [13]) was 0.167 and 0.134 and 0.121 and 0.172, the “pThrNKCC1 / NKCC1” value (NKCC1 pThr203/207/212 [6]; [12]) was 0.035 and 0.039 and 0.045 and 0.032 and the “Site-1 phospho / KCC” value (KCC3 pThr991; [8]) was 1.44 and 1.512 and 1.37 and 1.612. For the same compound, the “Site-1 phospho / KCC” value (KCC3 pThr991; [9]) was 1.67 and 1.55 and 1.71 and 1.58, the “Site-1 phospho / KCC” value (KCC3 pThr991; [10]) was 1.28 and 1.109 and 1.16 and 1.25 and the “Site-1 phospho / KCC” value (KCC3 pThr991; [11]) was 1.31 and 1.461 and 1.597 and 1.37. The “Site-1 phospho / KCC” value (KCC3 pThr991; [13]) was 1.16 and 1.27 and 1.05 and 1.23, the “Site-1 phospho / KCC” value (KCC3 pThr991; [12]) was 0.79 and 0.93 and 0.85 and 0.712 and the “Site-2 phospho / KCC” value (KCC3 pThr1048 [7]; [8]) was 0.321 and 0.39 and 0.36 and 0.315. For the same compound, the “Site-2 phospho / KCC” value (KCC3 pThr1048 [7]; [9]) was 0.263 and 0.275 and 0.22 and 0.253, the “Site-2 phospho / KCC” value (KCC3 pThr1048 [7]; [10]) was 0.1 and 0.116 and 0.092 and 0.107 and the “Site-2 phospho / KCC” value (KCC3 pThr1048 [7]; [11]) was 0.389 and 0.326 and 0.357 and 0.301. For the same compound, the “Site-2 phospho / KCC” value (KCC3 pThr1048 [7]; [13]) was 0.233 and 0.197 and 0.175 and 0.227 and the “Site-2 phospho / KCC” value (KCC3 pThr1048 [7]; [12]) was 0.104 and 0.076 and 0.11 and 0.095.
